Positions of bridges follow the written chain, without caps; N, C: chain ends. Non-standard residues stand in square brackets, D forms with d. Residues, ends and D or L forms follow the SMILES beside them. Phe(4-guanidino) = N=C(N)Nc1ccc(C[C@H](N)C(=O)O)cc1; hCit = NC(=O)NCCCC[C@H](N)C(=O)O; Cit = NC(=O)NCCC[C@H](N)C(=O)O; Dab = NCC[C@H](N)C(=O)O
Key:
[1] = biological target: hNav1.5 (Homo sapiens, UniProt Q14524); assay: cell-based
[2] = biological target: hNav1.7 (Homo sapiens, UniProt Q15858); assay: cell-based; conditions: Nav1.7 Use IC50
hNav1.7, sequence (Q15858 whole entry, looked up): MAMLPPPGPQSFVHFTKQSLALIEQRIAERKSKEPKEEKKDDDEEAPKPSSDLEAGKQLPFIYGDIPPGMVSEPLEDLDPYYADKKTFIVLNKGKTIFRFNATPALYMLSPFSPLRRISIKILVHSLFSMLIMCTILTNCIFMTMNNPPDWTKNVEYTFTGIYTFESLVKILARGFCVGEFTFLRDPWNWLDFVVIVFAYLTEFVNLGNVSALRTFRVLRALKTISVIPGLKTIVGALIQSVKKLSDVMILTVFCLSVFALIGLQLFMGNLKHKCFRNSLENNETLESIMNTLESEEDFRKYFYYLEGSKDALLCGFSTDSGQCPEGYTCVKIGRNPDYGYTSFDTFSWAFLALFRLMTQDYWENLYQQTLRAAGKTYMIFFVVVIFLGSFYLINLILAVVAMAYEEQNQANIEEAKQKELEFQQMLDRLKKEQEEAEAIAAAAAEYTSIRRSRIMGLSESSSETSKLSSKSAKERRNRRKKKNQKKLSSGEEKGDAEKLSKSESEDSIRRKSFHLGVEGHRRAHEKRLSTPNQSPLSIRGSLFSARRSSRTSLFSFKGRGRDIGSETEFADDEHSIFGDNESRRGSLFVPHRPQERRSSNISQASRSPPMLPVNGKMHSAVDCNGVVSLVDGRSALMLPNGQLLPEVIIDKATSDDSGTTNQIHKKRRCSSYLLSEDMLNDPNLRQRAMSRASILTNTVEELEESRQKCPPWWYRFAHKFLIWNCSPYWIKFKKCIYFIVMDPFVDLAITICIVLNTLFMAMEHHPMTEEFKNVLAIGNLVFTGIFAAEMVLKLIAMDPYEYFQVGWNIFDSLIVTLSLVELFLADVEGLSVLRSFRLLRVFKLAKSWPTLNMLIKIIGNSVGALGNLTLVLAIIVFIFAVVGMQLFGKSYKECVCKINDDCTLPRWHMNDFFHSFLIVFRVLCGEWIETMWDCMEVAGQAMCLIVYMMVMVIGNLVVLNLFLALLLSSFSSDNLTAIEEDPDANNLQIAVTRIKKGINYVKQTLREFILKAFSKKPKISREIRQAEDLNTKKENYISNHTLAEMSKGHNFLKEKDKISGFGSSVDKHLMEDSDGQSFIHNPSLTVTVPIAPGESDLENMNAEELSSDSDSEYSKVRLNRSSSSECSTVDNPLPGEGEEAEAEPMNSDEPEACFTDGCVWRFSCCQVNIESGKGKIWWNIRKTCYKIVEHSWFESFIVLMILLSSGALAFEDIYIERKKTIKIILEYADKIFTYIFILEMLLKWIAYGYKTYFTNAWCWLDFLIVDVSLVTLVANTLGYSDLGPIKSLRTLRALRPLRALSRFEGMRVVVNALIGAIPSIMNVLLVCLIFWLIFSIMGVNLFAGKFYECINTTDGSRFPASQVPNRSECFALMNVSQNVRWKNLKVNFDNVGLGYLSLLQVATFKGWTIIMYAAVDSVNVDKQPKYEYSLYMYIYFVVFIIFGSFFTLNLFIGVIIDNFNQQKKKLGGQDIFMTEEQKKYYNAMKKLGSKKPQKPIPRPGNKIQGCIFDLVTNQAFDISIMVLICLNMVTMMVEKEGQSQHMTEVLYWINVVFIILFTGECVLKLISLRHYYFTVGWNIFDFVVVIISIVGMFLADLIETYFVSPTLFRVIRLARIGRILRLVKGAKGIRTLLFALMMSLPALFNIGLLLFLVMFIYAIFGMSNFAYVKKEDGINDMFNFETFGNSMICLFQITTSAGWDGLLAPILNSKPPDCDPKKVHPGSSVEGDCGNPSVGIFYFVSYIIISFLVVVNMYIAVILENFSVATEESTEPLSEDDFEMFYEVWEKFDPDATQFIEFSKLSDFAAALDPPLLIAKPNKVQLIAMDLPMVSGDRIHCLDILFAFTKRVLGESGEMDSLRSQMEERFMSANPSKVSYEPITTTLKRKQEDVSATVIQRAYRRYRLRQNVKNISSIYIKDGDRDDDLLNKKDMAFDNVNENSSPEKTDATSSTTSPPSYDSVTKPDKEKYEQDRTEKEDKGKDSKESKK

hNav1.5, sequence (Q14524 whole entry, looked up): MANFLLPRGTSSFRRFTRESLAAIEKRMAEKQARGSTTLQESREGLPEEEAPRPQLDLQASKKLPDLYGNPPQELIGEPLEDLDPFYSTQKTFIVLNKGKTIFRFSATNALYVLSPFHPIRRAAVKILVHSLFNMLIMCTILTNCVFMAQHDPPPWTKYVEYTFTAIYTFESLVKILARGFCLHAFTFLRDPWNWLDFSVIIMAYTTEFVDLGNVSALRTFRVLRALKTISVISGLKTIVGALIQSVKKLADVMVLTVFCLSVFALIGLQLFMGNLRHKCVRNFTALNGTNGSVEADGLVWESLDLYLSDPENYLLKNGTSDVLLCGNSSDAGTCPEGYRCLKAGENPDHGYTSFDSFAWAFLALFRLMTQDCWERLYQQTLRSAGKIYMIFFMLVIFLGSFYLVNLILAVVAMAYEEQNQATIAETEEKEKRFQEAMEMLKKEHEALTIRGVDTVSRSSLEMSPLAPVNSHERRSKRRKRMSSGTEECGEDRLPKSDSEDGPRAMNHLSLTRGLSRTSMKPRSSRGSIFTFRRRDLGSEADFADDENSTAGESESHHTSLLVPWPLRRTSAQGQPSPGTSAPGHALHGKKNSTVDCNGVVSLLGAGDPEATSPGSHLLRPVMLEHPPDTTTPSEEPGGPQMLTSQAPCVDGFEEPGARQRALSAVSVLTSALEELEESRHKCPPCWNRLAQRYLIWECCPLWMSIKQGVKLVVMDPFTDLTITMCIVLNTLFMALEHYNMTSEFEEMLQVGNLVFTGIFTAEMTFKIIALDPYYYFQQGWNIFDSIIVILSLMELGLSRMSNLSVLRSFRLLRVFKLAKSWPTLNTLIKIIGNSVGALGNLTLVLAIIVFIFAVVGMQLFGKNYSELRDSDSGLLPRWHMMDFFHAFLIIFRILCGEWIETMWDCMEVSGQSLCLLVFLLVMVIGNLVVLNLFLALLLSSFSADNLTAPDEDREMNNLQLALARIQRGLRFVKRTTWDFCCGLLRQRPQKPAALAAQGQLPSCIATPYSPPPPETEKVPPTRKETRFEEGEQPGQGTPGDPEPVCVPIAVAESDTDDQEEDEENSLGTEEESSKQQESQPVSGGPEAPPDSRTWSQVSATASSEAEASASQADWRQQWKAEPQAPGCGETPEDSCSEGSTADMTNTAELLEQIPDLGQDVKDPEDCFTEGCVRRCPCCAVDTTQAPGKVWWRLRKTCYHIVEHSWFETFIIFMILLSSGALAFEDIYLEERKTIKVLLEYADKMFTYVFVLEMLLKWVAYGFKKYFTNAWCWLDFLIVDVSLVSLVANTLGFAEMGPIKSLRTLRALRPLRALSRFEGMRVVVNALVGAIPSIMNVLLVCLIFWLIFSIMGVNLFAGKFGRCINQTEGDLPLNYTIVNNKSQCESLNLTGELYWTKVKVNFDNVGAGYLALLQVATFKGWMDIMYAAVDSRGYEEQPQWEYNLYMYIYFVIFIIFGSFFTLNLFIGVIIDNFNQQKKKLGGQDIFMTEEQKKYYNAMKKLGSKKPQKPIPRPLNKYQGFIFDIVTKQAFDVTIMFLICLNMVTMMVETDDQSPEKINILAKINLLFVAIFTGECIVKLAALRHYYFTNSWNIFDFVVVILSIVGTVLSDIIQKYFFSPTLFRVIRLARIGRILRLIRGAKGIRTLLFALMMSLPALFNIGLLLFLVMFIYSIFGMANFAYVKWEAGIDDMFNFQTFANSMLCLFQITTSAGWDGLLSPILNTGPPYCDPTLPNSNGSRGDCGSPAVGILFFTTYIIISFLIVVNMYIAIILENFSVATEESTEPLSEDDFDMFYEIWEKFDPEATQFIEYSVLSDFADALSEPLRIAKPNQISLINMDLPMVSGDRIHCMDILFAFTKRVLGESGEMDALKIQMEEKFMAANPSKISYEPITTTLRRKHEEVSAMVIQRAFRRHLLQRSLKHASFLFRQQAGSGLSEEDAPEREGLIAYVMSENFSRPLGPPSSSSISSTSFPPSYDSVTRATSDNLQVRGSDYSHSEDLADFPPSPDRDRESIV

Structure (SMILES): CSCC[C@@H]1NC(=O)[C@H](C)NC(=O)CNC(=O)[C@H](CC(C)C)NC(=O)[C@@H](NC(=O)[C@@H](N)CC(=O)O)CSSC[C@@H]2NC(=O)[C@@H]3CSSC[C@@H](C(=O)N[C@@H](CCCCN)C(=O)N[C@@H](Cc4ccc(O)cc4)C(=O)N[C@H](C(=O)N[C@@H](Cc4ccccc4)C(N)=O)C(C)C)NC(=O)[C@H](Cc4c[nH]c5ccccc45)NC(=O)[C@H](CCCCN)NC(=O)[C@H](Cc4c[nH]cn4)NC(=O)[C@H]([C@@H](C)O)NC(=O)[C@H](CCCNC(=N)N)NC(=O)[C@H](CO)NC(=O)[C@H](CSSC[C@H](NC(=O)[C@H](CCCCN)NC(=O)[C@H](CCCNC(=N)N)NC1=O)C(=O)N[C@@H](CC(=O)O)C(=O)N1CCC[C@H]1C(=O)N[C@@H](CCC(=O)O)C(=O)N[C@@H](CC(N)=O)C(=O)N[C@@H](CC(=O)O)C(=O)N[C@@H](CCCCN)C(=O)N3)NC(=O)[C@H](C(C)C)NC(=O)[C@H](CC(C)C)NC(=O)[C@H](CC(N)=O)NC(=O)[C@@H]1CCCN1C(=O)[C@H](CCCNC(=N)N)NC2=O [[Ala5;Asp10;Glu12]GpTx-1(1-34)] (H-DCLGAMRKCDPENDKCCRPNLVCSRTHKWCKYVF-NH2; disulfide 2-17, 9-23, 16-30)
- IC50 [1]: > 10000 nM
- IC50 [2]: 554 nM

Structure (SMILES): CSCC[C@@H]1NC(=O)[C@H](C)NC(=O)CNC(=O)[C@H](CC(C)C)NC(=O)[C@@H](NC(=O)[C@@H](N)CC(=O)O)CSSC[C@@H]2NC(=O)[C@@H]3CSSC[C@@H](C(=O)N[C@@H](CCCCN)C(=O)N[C@@H](Cc4ccc(O)cc4)C(=O)N[C@H](C(=O)N[C@@H](Cc4ccccc4)C(N)=O)C(C)C)NC(=O)[C@H](Cc4c[nH]c5ccccc45)NC(=O)[C@H](CCCCN)NC(=O)[C@H](Cc4c[nH]cn4)NC(=O)[C@H]([C@@H](C)O)NC(=O)[C@H](CCCNC(=N)N)NC(=O)[C@H](CO)NC(=O)[C@H](CSSC[C@H](NC(=O)[C@H](CCCCN)NC(=O)[C@H](CCCNC(=N)N)NC1=O)C(=O)N[C@@H](CC(=O)O)C(=O)N1CCC[C@H]1C(=O)N[C@@H](CC(=O)O)C(=O)N[C@@H](CC(N)=O)C(=O)N[C@@H](CC(=O)O)C(=O)N[C@@H](CCCCN)C(=O)N3)NC(=O)[C@H](C(C)C)NC(=O)[C@H](CC(C)C)NC(=O)[C@H](CC(N)=O)NC(=O)[C@@H]1CCCN1C(=O)[C@H](CCCNC(=N)N)NC2=O [[Ala5;Asp10]GpTx-1(1-34)] (H-DCLGAMRKCDPDNDKCCRPNLVCSRTHKWCKYVF-NH2; disulfide 2-17, 9-23, 16-30)
- IC50 [1]: > 10000 nM
- IC50 [2]: 50 nM

Structure (SMILES): CC[C@H](C)[C@@H]1NC(=O)[C@@H]2CSSC[C@@H]3NC(=O)[C@H](C(C)C)NC(=O)[C@H](CC(C)C)NC(=O)[C@H](CC(N)=O)NC(=O)[C@@H]4CCCN4C(=O)[C@H](CCCNC(=N)N)NC(=O)[C@H](CSSC[C@H](NC(=O)[C@@H](N)CC(=O)O)C(=O)N[C@@H](CC(C)C)C(=O)NCC(=O)N[C@@H](C)C(=O)N[C@@H](CCSC)C(=O)N[C@@H](CCCNC(=N)N)C(=O)N[C@@H](CCCCN)C(=O)N2)NC(=O)[C@H](CSSC[C@@H](C(=O)N[C@@H](CCCCN)C(=O)N[C@@H](Cc2ccc(O)cc2)C(=O)N[C@H](C(=O)N[C@@H](Cc2ccccc2)C(N)=O)C(C)C)NC(=O)[C@H](Cc2c[nH]c4ccccc24)NC(=O)[C@H](CCCNC(N)=O)NC(=O)[C@H](Cc2c[nH]cn2)NC(=O)[C@H]([C@@H](C)O)NC(=O)[C@H](CCCNC(=N)N)NC(=O)[C@H](CO)NC3=O)NC(=O)[C@H](CCCCN)NC(=O)[C@H](CC(=O)O)NC(=O)[C@H](CC(N)=O)NC(=O)[C@H](CC(=O)O)NC(=O)[C@@H]2CCCN2C1=O [[Ala5;Cit28]GpTx-1(1-34)] (H-DCLGAMRKCIPDNDKCCRPNLVCSRTH[Cit]WCKYVF-NH2; disulfide 2-17, 9-23, 16-30)
- IC50 [1]: > 10000 nM
- IC50 [2]: 30 nM

Structure (SMILES): CC[C@H](C)[C@@H]1NC(=O)[C@@H]2CSSC[C@@H]3NC(=O)[C@H](C(C)C)NC(=O)[C@H](CC(C)C)NC(=O)[C@H](CC(N)=O)NC(=O)[C@@H]4CCCN4C(=O)[C@H](CCCNC(=N)N)NC(=O)[C@H](CSSC[C@H](NC(=O)[C@@H](N)CC(=O)O)C(=O)N[C@@H](CC(C)C)C(=O)NCC(=O)N[C@@H](C)C(=O)N[C@@H](CCSC)C(=O)N[C@@H](CCCNC(=N)N)C(=O)N[C@@H](CCCCN)C(=O)N2)NC(=O)[C@H](CSSC[C@@H](C(=O)N[C@@H](CCCCN)C(=O)N[C@@H](Cc2ccc(O)cc2)C(=O)N[C@H](C(=O)N[C@@H](Cc2ccccc2)C(N)=O)C(C)C)NC(=O)[C@H](Cc2c[nH]c4ccccc24)NC(=O)[C@H](CCN)NC(=O)[C@H](Cc2c[nH]cn2)NC(=O)[C@H]([C@@H](C)O)NC(=O)[C@H](CCCNC(=N)N)NC(=O)[C@H](CO)NC3=O)NC(=O)[C@H](CCCCN)NC(=O)[C@H](CC(=O)O)NC(=O)[C@H](CC(N)=O)NC(=O)[C@H](CC(=O)O)NC(=O)[C@@H]2CCCN2C1=O [[Ala5;Dab28]GpTx-1(1-34)] (H-DCLGAMRKCIPDNDKCCRPNLVCSRTH[Dab]WCKYVF-NH2; disulfide 2-17, 9-23, 16-30)
- IC50 [1]: > 10000 nM
- IC50 [2]: 13 nM

Structure (SMILES): CC[C@H](C)[C@@H]1NC(=O)[C@@H]2CSSC[C@@H]3NC(=O)[C@H](C(C)C)NC(=O)[C@H](CC(C)C)NC(=O)[C@H](CC(N)=O)NC(=O)[C@@H]4CCCN4C(=O)[C@H](CCCNC(=N)N)NC(=O)[C@H](CSSC[C@H](NC(=O)[C@@H](N)CC(=O)O)C(=O)N[C@@H](CC(C)C)C(=O)NCC(=O)N[C@@H](C)C(=O)N[C@@H](CCSC)C(=O)N[C@@H](CCCNC(=N)N)C(=O)N[C@@H](CCCCN)C(=O)N2)NC(=O)[C@H](CSSC[C@@H](C(=O)N[C@@H](CCCCN)C(=O)N[C@@H](Cc2ccc(O)cc2)C(=O)N[C@H](C(=O)N[C@@H](Cc2ccccc2)C(N)=O)C(C)C)NC(=O)[C@H](Cc2c[nH]c4ccccc24)NC(=O)[C@H](CCC(N)=O)NC(=O)[C@H](Cc2c[nH]cn2)NC(=O)[C@H]([C@@H](C)O)NC(=O)[C@H](CCCNC(=N)N)NC(=O)[C@H](CO)NC3=O)NC(=O)[C@H](CCCCN)NC(=O)[C@H](CC(=O)O)NC(=O)[C@H](CC(N)=O)NC(=O)[C@H](CC(=O)O)NC(=O)[C@@H]2CCCN2C1=O [[Ala5;Gln28]GpTx-1(1-34)] (H-DCLGAMRKCIPDNDKCCRPNLVCSRTHQWCKYVF-NH2; disulfide 2-17, 9-23, 16-30)
- IC50 [1]: > 10000 nM
- IC50 [2]: 37 nM

Structure (SMILES): CC[C@H](C)[C@@H]1NC(=O)[C@@H]2CSSC[C@@H]3NC(=O)[C@H](C(C)C)NC(=O)[C@H](CC(C)C)NC(=O)[C@H](CC(N)=O)NC(=O)[C@@H]4CCCN4C(=O)[C@H](CCCNC(=N)N)NC(=O)[C@H](CSSC[C@H](NC(=O)[C@@H](N)CC(=O)O)C(=O)N[C@@H](CC(C)C)C(=O)NCC(=O)N[C@@H](C)C(=O)N[C@@H](CCSC)C(=O)N[C@@H](CCCNC(=N)N)C(=O)N[C@@H](CCCCN)C(=O)N2)NC(=O)[C@H](CSSC[C@@H](C(=O)N[C@@H](CCCCN)C(=O)N[C@@H](Cc2ccc(O)cc2)C(=O)N[C@H](C(=O)N[C@@H](Cc2ccccc2)C(N)=O)C(C)C)NC(=O)[C@H](Cc2c[nH]c4ccccc24)NC(=O)[C@H](CCC(=O)O)NC(=O)[C@H](Cc2c[nH]cn2)NC(=O)[C@H]([C@@H](C)O)NC(=O)[C@H](CCCNC(=N)N)NC(=O)[C@H](CO)NC3=O)NC(=O)[C@H](CCCCN)NC(=O)[C@H](CC(=O)O)NC(=O)[C@H](CC(N)=O)NC(=O)[C@H](CC(=O)O)NC(=O)[C@@H]2CCCN2C1=O [[Ala5;Glu28]GpTx-1(1-34)]
- IC50 [1]: > 10000 nM
- IC50 [2]: 614 nM

Structure (SMILES): CC[C@H](C)[C@@H]1NC(=O)[C@@H]2CSSC[C@@H]3NC(=O)[C@H](C(C)C)NC(=O)[C@H](CC(C)C)NC(=O)[C@H](CC(N)=O)NC(=O)[C@@H]4CCCN4C(=O)[C@H](CCCNC(=N)N)NC(=O)[C@H](CSSC[C@H](NC(=O)[C@@H](N)CC(=O)O)C(=O)N[C@@H](CC(C)C)C(=O)NCC(=O)N[C@@H](C)C(=O)N[C@@H](CCSC)C(=O)N[C@@H](CCCNC(=N)N)C(=O)N[C@@H](CCCCN)C(=O)N2)NC(=O)[C@H](CSSC[C@@H](C(=O)N[C@@H](CCCCN)C(=O)N[C@@H](Cc2ccc(O)cc2)C(=O)N[C@H](C(=O)N[C@@H](Cc2ccccc2)C(N)=O)C(C)C)NC(=O)[C@H](Cc2c[nH]c4ccccc24)NC(=O)[C@H](Cc2ccc(NC(=N)N)cc2)NC(=O)[C@H](Cc2c[nH]cn2)NC(=O)[C@H]([C@@H](C)O)NC(=O)[C@H](CCCNC(=N)N)NC(=O)[C@H](CO)NC3=O)NC(=O)[C@H](CCCCN)NC(=O)[C@H](CC(=O)O)NC(=O)[C@H](CC(N)=O)NC(=O)[C@H](CC(=O)O)NC(=O)[C@@H]2CCCN2C1=O [[Ala5;Guf28]GpTx-1(1-34)] (H-DCLGAMRKCIPDNDKCCRPNLVCSRTH[Phe(4-guanidino)]WCKYVF-NH2; disulfide 2-17, 9-23, 16-30)
- IC50 [1]: > 10000 nM
- IC50 [2]: 5 nM

Structure (SMILES): CC[C@H](C)[C@@H]1NC(=O)[C@@H]2CSSC[C@@H]3NC(=O)[C@H](C(C)C)NC(=O)[C@H](CC(C)C)NC(=O)[C@H](CC(N)=O)NC(=O)[C@@H]4CCCN4C(=O)[C@H](CCCNC(=N)N)NC(=O)[C@H](CSSC[C@H](NC(=O)[C@@H](N)CC(=O)O)C(=O)N[C@@H](CC(C)C)C(=O)NCC(=O)N[C@@H](C)C(=O)N[C@@H](CCSC)C(=O)N[C@@H](CCCNC(=N)N)C(=O)N[C@@H](CCCCN)C(=O)N2)NC(=O)[C@H](CSSC[C@@H](C(=O)N[C@@H](CCCCN)C(=O)N[C@@H](Cc2ccc(O)cc2)C(=O)N[C@H](C(=O)N[C@@H](Cc2ccccc2)C(N)=O)C(C)C)NC(=O)[C@H](Cc2c[nH]c4ccccc24)NC(=O)[C@H](CCCCNC(N)=O)NC(=O)[C@H](Cc2c[nH]cn2)NC(=O)[C@H]([C@@H](C)O)NC(=O)[C@H](CCCNC(=N)N)NC(=O)[C@H](CO)NC3=O)NC(=O)[C@H](CCCCN)NC(=O)[C@H](CC(=O)O)NC(=O)[C@H](CC(N)=O)NC(=O)[C@H](CC(=O)O)NC(=O)[C@@H]2CCCN2C1=O [[Ala5;HCit28]GpTx-1(1-34)] (H-DCLGAMRKCIPDNDKCCRPNLVCSRTH[hCit]WCKYVF-NH2; disulfide 2-17, 9-23, 16-30)
- IC50 [1]: > 10000 nM
- IC50 [2]: 25 nM
